Assay results reported in the supplement of paper PMC10307832.

Experiments:
Test in all cases: relative viability (nuclei count vs DMSO), 5 days (fraction); higher = more cells survive
[1] = system: HCC-366
Outline: (§1)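 A single step with final 0.05% Triton X-100, 1% formaldehyde and 1 ug/ml Hoechst fixed the cells and stained nuclei 5 days after treatment. Lung cancer cell lines in 1536-well plates had been treated by pin tool the day after seeding with one drug alone or a fixed anchor-drug dose plus five library-drug doses (not always all listed) in √10 steps, and nuclei were counted on 4× images. Relative viability is the ratio of nuclei in treated wells to nuclei in vehicle wells, taken as the median of duplicate plates.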

[2] = system: NCI-H1975
Outline: as §1

[3] = system: NCI-H1734
Outline: as §1

[4] = system: LOU-NH91
Outline: as §1

[5] = system: NCI-H2085
Outline: as §1

[6] = system: NCI-H1355
Outline: as §1

[7] = system: CAL-12T
Outline: as §1

[8] = system: HCC-44
Outline: as §1

[9] = system: NCI-H1395
Outline: as §1

[10] = system: NCI-H1650
Outline: as §1

[11] = system: LU99A
Outline: as §1

[12] = system: NCI-H1437
Outline: as §1

[13] = system: NCI-H1755
Outline: as §1

[14] = system: NCI-H838
Outline: as §1

[15] = system: BEN
Outline: as §1

[16] = system: NCI-H2023
Outline: as §1

[17] = system: NCI-H1563
Outline: as §1

[18] = system: EKVX
Outline: as §1

[19] = system: NCI-H358
Outline: as §1

[20] = system: NCI-H1651
Outline: as §1

[21] = system: NCI-H441
Outline: as §1

[22] = system: NCI-H2342
Outline: as §1

[23] = system: NCI-H460
Outline: as §1

C=C1C(=O)O[C@@H](CCCCCCCC)[C@@H]1C(=O)O [C-75] + N=C(N)NC(=N)NCCc1ccccc1 [Phenformin] (partner 250 µM)
relative viability ([1]; first compound 0.08 µM): 0.586
relative viability ([1]; first compound 0.253 µM): 0.634
relative viability ([1]; first compound 0.8 µM): 0.61
relative viability ([1]; first compound 8 µM): 0.571
relative viability ([2]; first compound 0.08 µM): 0.403
relative viability ([2]; first compound 0.253 µM): 0.398
relative viability ([2]; first compound 0.8 µM): 0.389
relative viability ([2]; first compound 2.53 µM): 0.345
relative viability ([2]; first compound 8 µM): 0.412
relative viability ([3]; first compound 0.08 µM): 0.413
relative viability ([3]; first compound 0.253 µM): 0.427
relative viability ([3]; first compound 0.8 µM): 0.356
relative viability ([3]; first compound 2.53 µM): 0.286
relative viability ([3]; first compound 8 µM): 0.283
relative viability ([4]; first compound 0.08 µM): 0.715
relative viability ([4]; first compound 0.253 µM): 0.741
relative viability ([4]; first compound 0.8 µM): 0.612
relative viability ([4]; first compound 2.53 µM): 0.532
relative viability ([4]; first compound 8 µM): 0.749
relative viability ([5]; first compound 0.08 µM): 0.827
relative viability ([5]; first compound 0.253 µM): 0.693
relative viability ([5]; first compound 0.8 µM): 0.629
relative viability ([5]; first compound 2.53 µM): 0.63
relative viability ([5]; first compound 8 µM): 0.67
relative viability ([6]; first compound 0.08 µM): 0.488
relative viability ([6]; first compound 0.253 µM): 0.444
relative viability ([6]; first compound 0.8 µM): 0.452
relative viability ([6]; first compound 2.53 µM): 0.401
relative viability ([6]; first compound 8 µM): 0.484
relative viability ([7]; first compound 0.08 µM): 0.545
relative viability ([7]; first compound 0.253 µM): 0.746
relative viability ([7]; first compound 0.8 µM): 0.567
relative viability ([7]; first compound 2.53 µM): 0.556
relative viability ([7]; first compound 8 µM): 0.515
relative viability ([8]; first compound 0.08 µM): 0.294
relative viability ([8]; first compound 0.253 µM): 0.185
relative viability ([8]; first compound 0.8 µM): 0.176
relative viability ([8]; first compound 2.53 µM): 0.157
relative viability ([8]; first compound 8 µM): 0.142
relative viability ([9]; first compound 0.08 µM): 0.452
relative viability ([9]; first compound 0.253 µM): 0.454
relative viability ([9]; first compound 0.8 µM): 0.435
relative viability ([9]; first compound 2.53 µM): 0.45
relative viability ([9]; first compound 8 µM): 0.514
relative viability ([10]; first compound 0.08 µM): 0.47
relative viability ([10]; first compound 0.253 µM): 0.502
relative viability ([10]; first compound 2.53 µM): 0.448
relative viability ([10]; first compound 8 µM): 0.491
relative viability ([11]; first compound 0.08 µM): 0.848
relative viability ([11]; first compound 0.253 µM): 0.863
relative viability ([11]; first compound 0.8 µM): 0.816
relative viability ([11]; first compound 2.53 µM): 0.749
relative viability ([11]; first compound 8 µM): 0.641
relative viability ([12]; first compound 0.08 µM): 0.322
relative viability ([12]; first compound 0.253 µM): 0.323
relative viability ([12]; first compound 0.8 µM): 0.302
relative viability ([12]; first compound 2.53 µM): 0.284
relative viability ([12]; first compound 8 µM): 0.296
relative viability ([13]; first compound 0.08 µM): 0.633
relative viability ([13]; first compound 0.253 µM): 0.587
relative viability ([13]; first compound 0.8 µM): 0.577
relative viability ([13]; first compound 2.53 µM): 0.529
relative viability ([13]; first compound 8 µM): 0.607
relative viability ([14]; first compound 0.08 µM): 0.572
relative viability ([14]; first compound 0.8 µM): 0.515
relative viability ([14]; first compound 2.53 µM): 0.453
relative viability ([14]; first compound 8 µM): 0.49
relative viability ([15]; first compound 0.08 µM): 0.266
relative viability ([15]; first compound 0.253 µM): 0.274
relative viability ([15]; first compound 0.8 µM): 0.297
relative viability ([15]; first compound 8 µM): 0.258
relative viability ([16]; first compound 0.08 µM): 0.394
relative viability ([16]; first compound 0.253 µM): 0.502
relative viability ([16]; first compound 0.8 µM): 0.367
relative viability ([16]; first compound 2.53 µM): 0.384
relative viability ([16]; first compound 8 µM): 0.372
relative viability ([17]; first compound 0.08 µM): 0.656
relative viability ([17]; first compound 0.253 µM): 0.64
relative viability ([17]; first compound 0.8 µM): 0.655
relative viability ([17]; first compound 2.53 µM): 0.63
relative viability ([17]; first compound 8 µM): 0.691
relative viability ([18]; first compound 0.08 µM): 0.213
relative viability ([18]; first compound 0.253 µM): 0.228
relative viability ([18]; first compound 0.8 µM): 0.232
relative viability ([18]; first compound 8 µM): 0.25
relative viability ([19]; first compound 0.08 µM): 0.306
relative viability ([19]; first compound 0.253 µM): 0.328
relative viability ([19]; first compound 0.8 µM): 0.296
relative viability ([19]; first compound 2.53 µM): 0.326
relative viability ([19]; first compound 8 µM): 0.215
relative viability ([20]; first compound 0.08 µM): 0.35
relative viability ([20]; first compound 0.253 µM): 0.315
relative viability ([20]; first compound 0.8 µM): 0.354
relative viability ([20]; first compound 2.53 µM): 0.306
relative viability ([20]; first compound 8 µM): 0.291
relative viability ([21]; first compound 0.08 µM): 0.784
relative viability ([21]; first compound 0.253 µM): 0.725
relative viability ([21]; first compound 0.8 µM): 0.784
relative viability ([21]; first compound 2.53 µM): 0.672
relative viability ([21]; first compound 8 µM): 0.787
relative viability ([22]; first compound 0.08 µM): 0.542
relative viability ([22]; first compound 0.253 µM): 0.634
relative viability ([22]; first compound 0.8 µM): 0.664
relative viability ([22]; first compound 2.53 µM): 0.512
relative viability ([22]; first compound 8 µM): 0.524
relative viability ([23]; first compound 0.08 µM): 0.511
relative viability ([23]; first compound 0.253 µM): 0.534
relative viability ([23]; first compound 0.8 µM): 0.501
relative viability ([23]; first compound 8 µM): 0.516
